Measurements taken from ChEMBL document CHEMBL5465560, “Selectivity Literature for EUbOPEN Chemogenomic Library” (2024).

How the values were obtained:
[1] = molecular target: Tyrosine-protein kinase ABL1 (Homo sapiens, UniProt P00519); assay: Selectivity interaction (KinomeScan (DiscoverX)) EUB0000045b ABL1; conditions: at 1 µM
[2] = molecular target: T1, Serine/threonine-protein kinase N1 (Homo sapiens, UniProt Q16512); assay: Selectivity interaction (KinomeScan (DiscoverX)) EUB0000695a PKN1; conditions: at 100 nM
T1 sequence (Q16512 2-942 limits assumed): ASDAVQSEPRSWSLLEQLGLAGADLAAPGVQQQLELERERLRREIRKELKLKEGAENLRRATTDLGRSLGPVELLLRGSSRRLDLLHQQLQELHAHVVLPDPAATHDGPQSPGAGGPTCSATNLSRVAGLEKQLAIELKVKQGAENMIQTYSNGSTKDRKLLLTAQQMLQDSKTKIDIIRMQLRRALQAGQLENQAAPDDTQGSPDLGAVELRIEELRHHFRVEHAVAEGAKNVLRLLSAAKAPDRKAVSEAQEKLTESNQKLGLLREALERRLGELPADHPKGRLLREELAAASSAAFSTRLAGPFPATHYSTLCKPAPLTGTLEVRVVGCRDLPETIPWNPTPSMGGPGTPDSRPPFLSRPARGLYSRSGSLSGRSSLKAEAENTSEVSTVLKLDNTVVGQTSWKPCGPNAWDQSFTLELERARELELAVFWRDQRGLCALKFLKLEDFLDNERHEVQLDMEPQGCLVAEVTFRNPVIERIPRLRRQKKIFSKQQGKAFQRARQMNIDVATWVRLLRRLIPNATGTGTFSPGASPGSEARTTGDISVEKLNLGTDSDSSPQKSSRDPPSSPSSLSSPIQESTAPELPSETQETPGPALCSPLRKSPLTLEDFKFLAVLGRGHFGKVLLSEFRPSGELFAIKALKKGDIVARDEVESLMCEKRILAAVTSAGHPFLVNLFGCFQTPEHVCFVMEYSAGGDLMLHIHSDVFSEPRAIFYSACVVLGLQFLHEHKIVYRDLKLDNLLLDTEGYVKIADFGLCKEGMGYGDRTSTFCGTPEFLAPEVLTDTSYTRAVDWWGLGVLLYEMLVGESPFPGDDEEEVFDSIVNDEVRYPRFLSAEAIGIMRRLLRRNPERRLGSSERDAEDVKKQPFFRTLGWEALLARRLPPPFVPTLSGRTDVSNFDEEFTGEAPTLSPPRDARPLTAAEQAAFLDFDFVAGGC

[3] = molecular target: T2, Mitogen-activated protein kinase kinase kinase kinase 3 (Homo sapiens) (UniProt Q8IVH8); assay: Selectivity interaction (KinomeScan (DiscoverX)) EUB0001079a MAP4K3; conditions: at 1 µM
T2 sequence (whole entry): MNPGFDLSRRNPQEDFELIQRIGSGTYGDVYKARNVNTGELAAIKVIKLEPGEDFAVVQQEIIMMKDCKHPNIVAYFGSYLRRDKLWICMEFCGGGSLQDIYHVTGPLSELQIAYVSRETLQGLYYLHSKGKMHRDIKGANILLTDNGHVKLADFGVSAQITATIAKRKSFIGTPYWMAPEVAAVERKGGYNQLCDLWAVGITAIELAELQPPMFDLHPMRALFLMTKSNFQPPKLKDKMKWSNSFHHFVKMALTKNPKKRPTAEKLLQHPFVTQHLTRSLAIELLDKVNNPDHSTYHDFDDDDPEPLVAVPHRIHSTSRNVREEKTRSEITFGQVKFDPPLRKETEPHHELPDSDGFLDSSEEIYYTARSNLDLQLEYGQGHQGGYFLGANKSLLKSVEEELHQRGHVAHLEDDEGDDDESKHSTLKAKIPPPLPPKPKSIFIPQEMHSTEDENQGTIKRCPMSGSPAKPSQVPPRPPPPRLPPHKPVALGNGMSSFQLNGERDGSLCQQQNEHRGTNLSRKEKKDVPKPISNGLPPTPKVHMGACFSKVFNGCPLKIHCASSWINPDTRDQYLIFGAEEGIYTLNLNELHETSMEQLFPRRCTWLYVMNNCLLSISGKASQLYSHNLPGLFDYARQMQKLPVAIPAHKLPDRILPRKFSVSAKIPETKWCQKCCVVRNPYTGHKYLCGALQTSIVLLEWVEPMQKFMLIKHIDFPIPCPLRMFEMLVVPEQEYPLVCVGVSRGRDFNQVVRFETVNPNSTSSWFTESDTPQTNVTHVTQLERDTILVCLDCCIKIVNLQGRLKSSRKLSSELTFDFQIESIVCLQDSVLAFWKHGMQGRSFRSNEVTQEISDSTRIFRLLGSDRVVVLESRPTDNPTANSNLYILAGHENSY

[4] = molecular target: Serine/threonine-protein kinase 26 (Homo sapiens, UniProt Q9P289); assay: Selectivity interaction (KinomeScan (DiscoverX)) EUB0000666a STK26; conditions: at 10 µM
Chain of Serine/threonine-protein kinase 26 (Q9P289 2-416 limits assumed): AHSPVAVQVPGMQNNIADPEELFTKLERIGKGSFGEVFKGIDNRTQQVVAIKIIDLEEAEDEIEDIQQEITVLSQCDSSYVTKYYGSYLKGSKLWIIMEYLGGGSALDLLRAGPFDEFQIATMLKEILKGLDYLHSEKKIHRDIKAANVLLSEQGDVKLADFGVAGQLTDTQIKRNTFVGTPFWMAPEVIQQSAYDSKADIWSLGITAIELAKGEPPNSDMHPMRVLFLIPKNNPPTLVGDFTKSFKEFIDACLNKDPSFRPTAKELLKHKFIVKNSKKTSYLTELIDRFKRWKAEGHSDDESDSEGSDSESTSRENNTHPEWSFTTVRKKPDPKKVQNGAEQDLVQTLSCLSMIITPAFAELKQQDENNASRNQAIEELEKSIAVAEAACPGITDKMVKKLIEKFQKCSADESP

[5] = molecular target: Myosin light chain kinase, smooth muscle (Homo sapiens, UniProt Q15746); conditions: at 10 µM
[6] = molecular target: Amine oxidase [flavin-containing] A (Homo sapiens, UniProt P21397); assay: Selectivity interaction (Monoamine Oxidase A, human recombinant baculovirus ) EUB0000877a MAOA
Chain of Amine oxidase [flavin-containing] A (P21397 whole entry): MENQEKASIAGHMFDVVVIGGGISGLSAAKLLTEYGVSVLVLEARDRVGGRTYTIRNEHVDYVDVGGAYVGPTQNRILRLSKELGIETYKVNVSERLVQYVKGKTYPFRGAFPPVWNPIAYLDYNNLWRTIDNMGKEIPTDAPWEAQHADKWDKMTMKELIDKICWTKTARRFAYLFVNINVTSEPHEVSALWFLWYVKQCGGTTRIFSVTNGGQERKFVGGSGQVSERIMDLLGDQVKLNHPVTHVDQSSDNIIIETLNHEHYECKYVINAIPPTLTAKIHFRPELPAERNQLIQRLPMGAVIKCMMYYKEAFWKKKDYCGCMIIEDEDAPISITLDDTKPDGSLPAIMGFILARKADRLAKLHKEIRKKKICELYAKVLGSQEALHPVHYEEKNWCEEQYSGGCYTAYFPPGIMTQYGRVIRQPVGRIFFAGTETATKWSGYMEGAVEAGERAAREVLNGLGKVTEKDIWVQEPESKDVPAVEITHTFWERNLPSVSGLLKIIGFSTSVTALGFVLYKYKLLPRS

[7] = molecular target: Casein kinase II subunit alpha' (Homo sapiens) (UniProt P19784); assay: Selectivity interaction (KinomeScan (DiscoverX)) EUB0001619a CSNK2A2; conditions: at 1 µM
Chain of Casein kinase II subunit alpha' (Homo sapiens) (P19784 whole entry, looked up): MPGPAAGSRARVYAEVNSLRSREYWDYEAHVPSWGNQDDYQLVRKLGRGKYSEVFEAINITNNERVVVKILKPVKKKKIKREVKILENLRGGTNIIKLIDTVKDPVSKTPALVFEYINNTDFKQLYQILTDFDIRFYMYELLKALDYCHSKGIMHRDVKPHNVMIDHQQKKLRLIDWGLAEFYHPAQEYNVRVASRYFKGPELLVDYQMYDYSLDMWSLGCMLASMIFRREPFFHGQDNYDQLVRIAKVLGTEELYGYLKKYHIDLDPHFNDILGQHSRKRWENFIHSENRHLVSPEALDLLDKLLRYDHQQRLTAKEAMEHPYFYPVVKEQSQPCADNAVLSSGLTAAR

[8] = molecular target: T3, G protein-coupled receptor kinase 3 (Homo sapiens) (UniProt P35626); assay: Selectivity interaction (SelectScreen profiling (Invitrogen)) EUB0000607a ADRBK2; conditions: at 2 µM
T3 sequence (whole entry): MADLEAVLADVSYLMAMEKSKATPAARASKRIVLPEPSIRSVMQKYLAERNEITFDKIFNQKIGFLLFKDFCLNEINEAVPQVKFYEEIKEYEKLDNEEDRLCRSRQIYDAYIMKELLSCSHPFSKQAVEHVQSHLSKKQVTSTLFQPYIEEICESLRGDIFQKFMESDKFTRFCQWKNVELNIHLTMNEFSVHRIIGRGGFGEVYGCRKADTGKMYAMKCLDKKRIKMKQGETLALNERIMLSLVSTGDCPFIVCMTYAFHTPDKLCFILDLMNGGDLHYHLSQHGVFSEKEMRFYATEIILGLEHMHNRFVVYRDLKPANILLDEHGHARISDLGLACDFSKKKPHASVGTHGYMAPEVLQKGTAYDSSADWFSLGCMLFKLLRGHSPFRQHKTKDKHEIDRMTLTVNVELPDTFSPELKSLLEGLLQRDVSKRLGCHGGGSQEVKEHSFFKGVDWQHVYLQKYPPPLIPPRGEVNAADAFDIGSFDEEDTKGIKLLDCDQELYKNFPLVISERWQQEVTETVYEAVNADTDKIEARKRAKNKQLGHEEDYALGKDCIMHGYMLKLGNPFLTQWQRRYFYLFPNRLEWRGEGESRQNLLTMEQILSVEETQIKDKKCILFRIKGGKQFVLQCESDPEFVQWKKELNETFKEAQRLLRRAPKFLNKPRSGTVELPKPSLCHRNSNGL

[9] = molecular target: T4, NUAK family SNF1-like kinase 2 (Homo sapiens) (UniProt Q9H093); assay: Selectivity interaction (KinomeScan (DiscoverX)) EUB0000607a NUAK2; conditions: at 10 µM
T4 sequence (whole entry): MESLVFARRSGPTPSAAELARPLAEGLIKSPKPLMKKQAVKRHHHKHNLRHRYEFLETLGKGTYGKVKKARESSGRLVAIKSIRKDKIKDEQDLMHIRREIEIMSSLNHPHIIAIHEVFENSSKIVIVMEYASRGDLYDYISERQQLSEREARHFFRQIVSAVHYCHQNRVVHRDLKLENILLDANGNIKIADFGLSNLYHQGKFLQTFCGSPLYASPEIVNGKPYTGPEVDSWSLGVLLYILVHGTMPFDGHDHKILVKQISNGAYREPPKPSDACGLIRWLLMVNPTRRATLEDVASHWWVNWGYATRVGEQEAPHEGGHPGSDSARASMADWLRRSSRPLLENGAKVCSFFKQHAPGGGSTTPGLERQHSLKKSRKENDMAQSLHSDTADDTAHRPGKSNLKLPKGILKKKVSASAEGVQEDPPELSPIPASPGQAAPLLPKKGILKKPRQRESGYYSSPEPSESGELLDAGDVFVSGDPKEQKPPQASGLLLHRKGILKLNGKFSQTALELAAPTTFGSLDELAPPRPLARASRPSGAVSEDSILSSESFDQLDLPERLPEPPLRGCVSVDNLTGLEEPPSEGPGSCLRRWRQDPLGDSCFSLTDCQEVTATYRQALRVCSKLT

[10] = molecular target: T1, Serine/threonine-protein kinase N1; assay: Selectivity interaction (KinomeScan (DiscoverX)) EUB0000607a PKN1; conditions: at 10 µM
[11] = molecular target: Serine/threonine-protein kinase Chk2 (Homo sapiens) (UniProt O96017); assay: Selectivity interaction (ActivX KiNativ screen (kinase selectivity in THP-1 cell lysates)) EUB0000639a CHEK2; type: subcellular; conditions: lysate, at 0.01 µM
Chain of Serine/threonine-protein kinase Chk2 (Homo sapiens) (O96017 whole entry): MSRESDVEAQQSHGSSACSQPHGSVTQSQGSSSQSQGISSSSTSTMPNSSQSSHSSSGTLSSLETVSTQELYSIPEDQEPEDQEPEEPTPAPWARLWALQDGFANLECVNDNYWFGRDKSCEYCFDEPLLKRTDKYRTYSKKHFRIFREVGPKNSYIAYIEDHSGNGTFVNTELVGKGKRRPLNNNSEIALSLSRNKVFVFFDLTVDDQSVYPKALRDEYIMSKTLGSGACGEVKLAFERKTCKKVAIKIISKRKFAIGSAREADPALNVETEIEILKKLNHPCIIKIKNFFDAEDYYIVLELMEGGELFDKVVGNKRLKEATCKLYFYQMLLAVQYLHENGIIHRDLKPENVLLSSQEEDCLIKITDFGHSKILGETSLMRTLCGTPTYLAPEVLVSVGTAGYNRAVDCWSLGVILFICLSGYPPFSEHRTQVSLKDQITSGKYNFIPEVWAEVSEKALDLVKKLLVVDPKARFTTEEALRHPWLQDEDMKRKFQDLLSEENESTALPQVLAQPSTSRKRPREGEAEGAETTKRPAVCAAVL

[12] = molecular target: Tyrosine-protein kinase Lyn (Homo sapiens, UniProt P07948); assay: Selectivity interaction (ActivX KiNativ screen (kinase selectivity in THP-1 cell lysates)) EUB0000639a LYN; type: subcellular; conditions: lysate
Chain of Tyrosine-protein kinase Lyn (P07948 2-512 limits assumed): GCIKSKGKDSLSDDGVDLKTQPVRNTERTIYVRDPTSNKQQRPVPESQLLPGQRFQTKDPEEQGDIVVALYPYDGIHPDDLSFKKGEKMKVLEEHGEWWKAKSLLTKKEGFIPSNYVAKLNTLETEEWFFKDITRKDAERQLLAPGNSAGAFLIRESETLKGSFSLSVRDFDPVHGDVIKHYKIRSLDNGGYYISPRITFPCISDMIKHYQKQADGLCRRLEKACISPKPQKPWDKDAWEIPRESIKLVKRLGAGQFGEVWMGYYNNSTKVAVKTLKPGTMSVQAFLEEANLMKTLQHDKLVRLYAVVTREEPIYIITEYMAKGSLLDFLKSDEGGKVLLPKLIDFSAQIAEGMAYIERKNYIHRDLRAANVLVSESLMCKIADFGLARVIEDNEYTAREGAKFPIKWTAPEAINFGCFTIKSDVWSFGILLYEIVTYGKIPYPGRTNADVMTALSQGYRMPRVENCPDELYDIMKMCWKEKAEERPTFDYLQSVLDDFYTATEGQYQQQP

Chain of Tyrosine-protein kinase ABL1 (P00519 whole entry): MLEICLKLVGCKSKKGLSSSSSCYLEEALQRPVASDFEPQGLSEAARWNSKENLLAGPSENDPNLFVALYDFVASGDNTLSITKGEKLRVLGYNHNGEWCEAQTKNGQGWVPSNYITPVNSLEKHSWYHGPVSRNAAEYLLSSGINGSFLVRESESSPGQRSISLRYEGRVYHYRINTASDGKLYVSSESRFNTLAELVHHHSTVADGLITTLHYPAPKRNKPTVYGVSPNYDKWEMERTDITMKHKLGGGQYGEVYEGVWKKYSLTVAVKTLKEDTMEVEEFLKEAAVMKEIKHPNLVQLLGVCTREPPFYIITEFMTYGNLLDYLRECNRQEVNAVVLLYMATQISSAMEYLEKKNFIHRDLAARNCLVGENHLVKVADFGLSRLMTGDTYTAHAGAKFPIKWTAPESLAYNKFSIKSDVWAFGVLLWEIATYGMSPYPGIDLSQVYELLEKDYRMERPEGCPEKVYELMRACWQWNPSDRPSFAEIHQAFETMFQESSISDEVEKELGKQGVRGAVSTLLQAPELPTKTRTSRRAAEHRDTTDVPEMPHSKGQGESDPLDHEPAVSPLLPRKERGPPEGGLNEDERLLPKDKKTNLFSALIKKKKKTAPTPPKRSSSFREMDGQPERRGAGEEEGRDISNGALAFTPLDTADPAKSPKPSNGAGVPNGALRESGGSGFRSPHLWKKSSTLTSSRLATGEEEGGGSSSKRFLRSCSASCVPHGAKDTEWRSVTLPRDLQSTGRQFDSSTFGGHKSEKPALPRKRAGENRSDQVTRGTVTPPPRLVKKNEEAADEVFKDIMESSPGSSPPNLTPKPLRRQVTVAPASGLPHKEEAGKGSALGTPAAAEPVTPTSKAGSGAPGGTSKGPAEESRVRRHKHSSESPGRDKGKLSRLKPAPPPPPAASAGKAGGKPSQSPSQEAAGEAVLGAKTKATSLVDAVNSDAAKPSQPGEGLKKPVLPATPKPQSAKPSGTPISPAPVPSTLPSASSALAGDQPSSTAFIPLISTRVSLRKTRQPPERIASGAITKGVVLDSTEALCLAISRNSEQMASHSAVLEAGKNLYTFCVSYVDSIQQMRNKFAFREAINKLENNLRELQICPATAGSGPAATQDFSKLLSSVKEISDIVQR

Work on `C=CC(=O)Nc1cc(-n2c(=O)ccc3cnc4ccc(-c5ccc(NS(C)(=O)=O)cc5)cc4c32)ccc1C` yielded a % of control [1] of 100%.

With `Cc1cc(F)c(C(=O)Nc2cccc(-c3nncn3C(C)C)n2)cc1-n1cnc(C2CC2)c1` the % of control [2] was 83%.

`Nc1cnc(N2CCc3cc(S(=O)(=O)Nc4c(F)cc(Cl)cc4F)cc(N4CCCC4=O)c32)nc1` [TP-020n] showed a % of control [3] of 93%.

`O=C(NOC[C@H](O)CO)c1ccc(F)c(F)c1Nc1ccc(I)cc1F` gave a % of control [4] of 77%.

`Cc1cc([C@@H](C)Nc2ccccc2C(=O)O)c2nc(N3CCOCC3)cc(=O)n2c1` [AZD-6482] was tested, and the % of control [5] was 70%.

For `CCC(=O)N1CC[C@H](Nc2ncnc3c2CN(c2cnc(OC)c(C(F)(F)F)c2)CC3)C1` [LENIOLISIB], the IC50 [6] was over 30 µM.

For `N#Cc1cccc(-c2c[nH]c3ncnc(N4CCOCC4)c23)c1`, the % of control [7] was 45%.

For `CNC(=O)Nc1ccc(-c2nc(N3CC4CCC(C3)O4)c3cnn(C4CCC5(CC4)OCCO5)c3n2)cc1`, the % of inhibition [8] was -3%, the % of control [9] was 100% and the % of control [10] was 100%.

`CC[C@@H]1[C@H](F)C(=O)N[C@@H]1COc1nccc2cc(C(N)=O)c(OC)cc12` [ZIMLOVISERTIB] was tested, and the % of inhibition [11] was -4.8%, the % of inhibition ([12]; at 0.01 µM) was 12.8% and the % of inhibition ([12]; at 0.04 µM) was -4.2%. For the same compound, the % of inhibition ([12]; at 0.2 µM) was 5.4%, the % of inhibition ([12]; at 1 µM) was 6% and the % of inhibition ([12]; at 5 µM) was 2.2%.
